One series deals with T1, rat CB1 receptor (Rattus norvegicus, UniProt P20272).
T1 construct: membrane preparations from rat brain; from tissue; host or cells: rat brain membranes
The series can be described thus: Radioligand competition binding, [3H]CP-55,940, rat brain membranes. As to the method: (§1) Inhibition constant values (Ki) from the respective competition binding curves are listed in Table 1 in which our first generation cannabilactone analog AM1714 is included for comparison. The current data of AM1714 for mCB2 are slightly different when compared to those we published earlier. This is because the compound was first assayed in a different mCB2 receptor preparation, e.g., mouse spleen membrane.
(§2) Results from the competition assays were analyzed using nonlinear regression to determine the IC50 values for the ligand [59]; Ki values were calculated from the IC50 (Prism by GraphPad Software, Inc.). Each experiment was performed in triplicate and Ki values determined from three independent experiments and are expressed as the mean of the three values.
On the technique in general: In a radioligand displacement assay an active substance lowers the binding of a labelled ligand.

For the next series, the target named is T2, mouse CB2 receptor (Mus musculus, UniProt P47936).
T2 construct: expressed in transfected cells; host or cells: HEK293
T2 sequence (P47936 whole entry): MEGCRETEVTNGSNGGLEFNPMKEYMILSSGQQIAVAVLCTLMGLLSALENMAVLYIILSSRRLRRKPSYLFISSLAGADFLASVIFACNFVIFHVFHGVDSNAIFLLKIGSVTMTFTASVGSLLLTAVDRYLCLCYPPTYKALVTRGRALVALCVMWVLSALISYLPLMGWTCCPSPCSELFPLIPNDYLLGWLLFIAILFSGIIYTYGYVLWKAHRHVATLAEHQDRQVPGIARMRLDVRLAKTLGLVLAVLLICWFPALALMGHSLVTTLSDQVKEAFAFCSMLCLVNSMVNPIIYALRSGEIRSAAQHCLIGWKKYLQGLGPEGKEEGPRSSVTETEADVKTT
The series can be described thus: Radioligand competition binding, [3H]CP-55,940, membranes from HEK293 cells expressing mouse CB2. As to conditions: for rCB1/mCB2: ratio of Ki values, rCB1 over mCB2; for selectivity for mCB2 over rCB1: from Ki values. How it is done:
as §1, §2

Series [1] has as its target T3, hCB2 receptor (Homo sapiens, UniProt P34972). The experiment in a line: cAMP assay: decrease in forskolin-stimulated cAMP in HEK293 cells stably expressing hCB2. In kind it is cell-based. More on the design: expressed in transfected cells. Conditions: for classification at hCB2: forskolin-stimulated cAMP assay; for E(max): maximum inhibition of forskolin stimulated cAMP levels, as percentage of CP-55,940 response at 500 nM. Background: cAMP levels reflect the balance of adenylyl cyclase and phosphodiesterase activity.
Method: HEK293 cells stably expressing hCB2 receptors were used for the studies. The cAMP assay was carried out using PerkinElmer’s Lance ultra cAMP kit following the protocol of the manufacturer. Briefly, the assays were carried out in 384-well plates using 1000–1500 cells/well. The cells were harvested with non-enzymatic cell dissociation reagent Versene, washed once with HBSS and resuspended in the stimulation buffer. The various concentrations of the test compound (5 μL) in forskolin (2 μM final concentration) containing stimulation buffer were added to the plate followed by the cell suspension (5 μL). Cells were stimulated for 30 min at room temperature. Eu-cAMP tracer working solution (5 μL) and Ulight-anti-cAMP working solution (5 μL) were then added to the plate and incubated at room temperature for 60 min. The data were collected on a Perkin-Elmer Envision instrument. The EC50 values were determined by non-linear regression analysis using GraphPad Prism software (GraphPad Software, Inc., San Diego, CA, USA).

For series [2], the target named is T3, hCB2 receptor. The series can be described thus: Radioligand competition binding, [3H]CP-55,940, membranes from HEK293 cells expressing human CB2. More on the design: expressed in transfected cells; host or cells: HEK293. Conditions: for greater affinity for mCB2 than for hCB2: from Ki values; for Ki: read-out: Ki hCB2; for hCB2/mCB2 / rCB1/hCB2: ratio of Ki values; for hCB2/mCB2: hCB2 over mCB2; for rCB1/hCB2: rCB1 over hCB2. As to the method:
Indeed, in our original work on the cannabilactone class of compounds, we have identified species-specific variation in CB2 affinity. For this reason, the key compounds were also assayed using membranes from HEK293 cells expressing human CB2 (hCB2).
as §2

Like-named read-outs stand apart in the source and are kept apart here.

T3 sequence (P34972 whole entry): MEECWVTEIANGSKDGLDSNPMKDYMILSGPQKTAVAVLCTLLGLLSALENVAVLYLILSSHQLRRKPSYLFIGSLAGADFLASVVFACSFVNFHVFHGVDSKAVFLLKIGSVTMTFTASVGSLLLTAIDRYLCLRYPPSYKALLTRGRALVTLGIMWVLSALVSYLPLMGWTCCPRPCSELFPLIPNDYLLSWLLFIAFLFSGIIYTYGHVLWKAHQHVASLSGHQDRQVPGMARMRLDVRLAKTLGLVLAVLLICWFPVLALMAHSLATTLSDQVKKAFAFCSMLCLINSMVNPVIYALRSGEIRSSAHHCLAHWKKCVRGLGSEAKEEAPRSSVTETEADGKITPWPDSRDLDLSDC
T1 sequence (P20272 whole entry): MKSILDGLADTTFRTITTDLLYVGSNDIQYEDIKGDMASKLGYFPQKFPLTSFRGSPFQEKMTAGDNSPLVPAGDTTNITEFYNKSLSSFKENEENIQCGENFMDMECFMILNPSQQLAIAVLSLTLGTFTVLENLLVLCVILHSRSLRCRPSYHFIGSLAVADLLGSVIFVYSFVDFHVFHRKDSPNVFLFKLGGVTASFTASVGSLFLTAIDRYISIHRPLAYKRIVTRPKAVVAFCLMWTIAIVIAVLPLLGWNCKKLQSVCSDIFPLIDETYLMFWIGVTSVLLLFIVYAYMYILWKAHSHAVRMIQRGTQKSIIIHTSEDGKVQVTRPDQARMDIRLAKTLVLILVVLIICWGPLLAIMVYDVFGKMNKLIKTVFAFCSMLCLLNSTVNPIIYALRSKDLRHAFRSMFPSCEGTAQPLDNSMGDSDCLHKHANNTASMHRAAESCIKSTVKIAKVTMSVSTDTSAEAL

With `N#CCCCCC1(c2cc(O)c3c(c2)oc(=O)c2ccc(O)cc23)CCCC1` [Compound 3e, 3-[1-(4-Cyanobutyl)cyclopentyl]-1,9-dihydroxy-6H-dibenzo[b,d]pyran-6-one], the melting point (usually the temperature of the solid-liquid transition) fell in the range of 138 to 140 °C. Further, the Ki – broadly, a dissociation constant, usually derived from enzyme kinetics or from competition with a known ligand – at rat CB1 receptor (read-out: Ki rCB1) was 0.304 ± 0.073 µM. On mouse CB2 receptor, the Ki stood at 0.0118 ± 0.0041 µM and the rCB1/mCB2 came to 25.7.

Compound `N#CCCCCCC1(c2cc(O)c3c(c2)oc(=O)c2ccc(O)cc23)CCCC1` [Compound 3f, 3-[1-(5-Cyanopentyl)cyclopentyl]-1,9-dihydroxy-6H-dibenzo[b,d]pyran-6-one] gave a Ki at rat CB1 receptor of 0.64 ± 0.152 µM. For the same compound, the Ki at mouse CB2 receptor (read-out: Ki mCB2) stood at 0.0049 ± 0.0012 µM. Besides, at hCB2 receptor [1], the EC50 (commonly the concentration needed to bring the measured effect to its halfway point) amounted to 0.0037 ± 0.0015 µM, the “classification at hCB2” value is on record as “agonist” and the “E(max)” value is reported as 89%. On hCB2 receptor [1] (listed as AM4346), the “classification at hCB2” value is given as “potent CB2 agonist”. Further, at hCB2 receptor [2], the “greater affinity for mCB2 than for hCB2” value is 7 fold and the Ki stood at 0.0338 ± 0.0104 µM.

`CCCCCCC1(c2cc(O)c(-c3cc(O)ccc3C(=O)N(C(C)C)C(C)C)c(O)c2)CCCC1` [Compound 23d, 4′-(1-Hexyl-cyclopentyl)-2′,5,6′-trihydroxy-N,N-diisopropyl-[1,1′-biphenyl]-2-carboxamide] came in with a melting point of 185 to 187 °C. In addition, on rat CB1 receptor (read-out: Ki rCB1), the Ki is 0.341 ± 0.1 µM. Further, on mouse CB2 receptor, the Ki was determined as 0.0057 ± 0.0015 µM, the “selectivity for mCB2 over rCB1” value is reported as 60 fold and the rCB1/mCB2 was found to be 59.8. Moreover, the “response in hCB2 cAMP assay” value at hCB2 receptor [1] (concentrations up to 2 μM) is reported as “failed to show any responses”.

Consider `CC(C)N(C(=O)c1ccc(O)cc1-c1c(O)cc(C2(CCCBr)CCCC2)cc1O)C(C)C` [Compound 23c, 4′-[1-(3-Bromopropyl)cyclopentyl]-2′,5,6′-trihydroxy-N,N-diisopropyl-[1,1′-biphenyl]-2-carboxamide], for which the melting point lay in the range of 178 to 180 °C. Further, the Ki on rat CB1 receptor (read-out: Ki rCB1) stood at 0.229 ± 0.07 µM. On mouse CB2 receptor, the Ki came out at 0.0105 ± 0.0035 µM and the rCB1/mCB2 came to 21.8.

For `CC(C)N(C(=O)c1ccc(O)cc1-c1c(O)cc(C2(CCCCBr)CCCC2)cc1O)C(C)C` [Compound 23a, 4′-[1-(4-Bromobutyl)cyclopentyl]-2′,5,6′-trihydroxy-N,N-diisopropyl-[1,1′-biphenyl]-2-carboxamide], the melting point fell in the range of 183 to 185 °C. The Ki on rat CB1 receptor (read-out: Ki rCB1) was found to be 0.702 ± 0.22 µM. Moreover, at mouse CB2 receptor, the Ki was 0.0224 ± 0.0045 µM and the rCB1/mCB2 turned out to be 31.3.

In turn, `N#CCCCC1(c2cc(O)c3c(c2)oc(=O)c2ccc(O)cc23)CCCC1` [Compound 3g, 3-[1-(3-Cyanopropyl)cyclopentyl]-1,9-dihydroxy-6H-dibenzo[b,d]pyran-6-one] yielded a melting point of 118 to 120 °C. For the same compound, the Ki on rat CB1 receptor (read-out: Ki rCB1) is 0.29 ± 0.064 µM. Moreover, at mouse CB2 receptor, the Ki amounted to 0.0179 ± 0.0058 µM and the rCB1/mCB2 stood at 16.2.

As for `CCCCCCC(C)(C)c1cc(O)c2c(c1)oc(=O)c1ccc(OC)cc12` [Compound 1a], on hCB2 receptor [1], the midpoint of the response, the EC50, lay at 0.0105 ± 0.0025 µM; the “classification at hCB2” value is listed as “agonist”; the “E(max)” value is given as 73%.

At rat CB1 receptor, `CCCCCCC(C)(C)c1cc(O)c2c(c1)oc(=O)c1ccc(O)cc12` [Compound 1b, reference compound] returned a Ki of 0.1 ± 0.024 µM. Besides, on mouse CB2 receptor, the “selectivity for mCB2 over rCB1” value is on record as 21- to 32 fold and the rCB1/mCB2 came out at 21.3. For the same compound, the Ki on mouse CB2 receptor (read-out: Ki mCB2) was determined as 0.0047 ± 0.0018 µM. Besides, on hCB2 receptor [1], the EC50 is 0.0369 ± 0.0068 µM, the “classification at hCB2” value is recorded as “agonist” and the “E(max)” value stood at 77%. Besides, on hCB2 receptor [2], the “greater affinity for mCB2 than for hCB2” value turned out to be 18 fold, the hCB2/mCB2 is 17.7, the rCB1/hCB2 is on record as 1.2 and the Ki amounted to 0.0836 ± 0.0232 µM.

Consider `CCCCCCC1(c2cc(O)c3c(c2)oc(=O)c2ccc(O)cc23)CCCC1` [Compound 3d, 3-(1-Hexyl-cyclopentyl]-1,9-dihydroxy-6H-dibenzo[b,d]pyran-6-one], for which the melting point was 153 to 155 °C. The same compound had a Ki at rat CB1 receptor of 0.266 ± 0.058 µM. On mouse CB2 receptor, the “selectivity for mCB2 over rCB1” value is 21- to 32 fold and the rCB1/mCB2 is on record as 31.7. For the same compound, the inhibition constant Ki on mouse CB2 receptor (read-out: Ki mCB2) stood at 0.0084 ± 0.0025 µM. Besides, at hCB2 receptor [2], the “greater affinity for mCB2 than for hCB2” value stood at 3 fold, the hCB2/mCB2 was 3.3, the rCB1/hCB2 worked out at 9.5 and the Ki turned out to be 0.028 ± 0.0097 µM.

Regarding `CC(C)N(C(=O)c1ccc(O)cc1-c1c(O)cc(C2(CCCCCBr)CCCC2)cc1O)C(C)C` [Compound 23b, 4′-[1-(5-Bromopentyl)cyclopentyl]-2′,5,6′-trihydroxy-N,N-diisopropyl-[1,1′-biphenyl]-2-carboxamide], the melting point lay in the range of 190 to 192 °C. Besides, on rat CB1 receptor (read-out: Ki rCB1), the Ki amounted to 0.745 ± 0.215 µM. Further, on mouse CB2 receptor, the Ki stood at 0.0174 ± 0.0048 µM and the rCB1/mCB2 amounted to 42.8.

As for `O=c1oc2cc(C3(CCCBr)CCCC3)cc(O)c2c2cc(O)ccc12` [Compound 3c, 3-[1-(3-Bromopropyl)cyclopentyl]-1,9-dihydroxy-6H-dibenzo[b,d]pyran-6-one], the Ki amounted to 0.405 ± 0.122 µM at rat CB1 receptor (read-out: Ki rCB1) and 0.0243 ± 0.0039 µM at mouse CB2 receptor.

For `O=c1oc2cc(C3(CCCCCBr)CCCC3)cc(O)c2c2cc(O)ccc12` [Compound 3b, 3-[1-(5-Bromopentyl)cyclopentyl]-1,9-dihydroxy-6H-dibenzo[b,d]pyran-6-one], the Ki at rat CB1 receptor (read-out: Ki rCB1) is 0.37 ± 0.13 µM; at mouse CB2 receptor, 0.0163 ± 0.0052 µM.

On to `O=c1oc2cc(C3(CCCCBr)CCCC3)cc(O)c2c2cc(O)ccc12` [Compound 3a, 3-[1-(4-Bromobutyl)cyclopentyl]-1,9-dihydroxy-6H-dibenzo[b,d]pyran-6-one], for which the melting point is 96 to 98 °C. For the same compound, the Ki on rat CB1 receptor (read-out: Ki rCB1) came out at 0.39 ± 0.132 µM. Moreover, at mouse CB2 receptor, the Ki was determined as 0.0208 ± 0.0059 µM and the rCB1/mCB2 was 18.8.

(Values after paper PMC6804212, “Chain Substituted Cannabilactones with Selectivity for the CB2 Cannabinoid Receptor” (Molecules, 2019).)
